Like-named read-outs stand apart in the source and are kept apart here.
What was measured:
[1] = target: β-Glucosidase (P. chrysosp.) (Phanerodontia chrysosporium, UniProt O74203); experiment: 4-nitrophenyl β-D-glucopyranoside hydrolysis, absorbance […] nm; type: biochemical; conditions: pH 6.0, 37 °C, phosphate buffer, 10% DMSO
[2] = target: α-Glucosidase (B. stearoth.); experiment: 4-nitrophenyl α-D-glucopyranoside hydrolysis, absorbance […] nm; type: biochemical, Geobacillus stearothermophilus; conditions: read-out: 6; pH 6.0, 37 °C, phosphate buffer, 10% DMSO; competitive
α-Glucosidase (A. niger) = target: T1, α-Glucosidase (A. niger) (Aspergillus niger, UniProt P56526); experiment: as above; type: biochemical
T1 sequence (P56526 26-985): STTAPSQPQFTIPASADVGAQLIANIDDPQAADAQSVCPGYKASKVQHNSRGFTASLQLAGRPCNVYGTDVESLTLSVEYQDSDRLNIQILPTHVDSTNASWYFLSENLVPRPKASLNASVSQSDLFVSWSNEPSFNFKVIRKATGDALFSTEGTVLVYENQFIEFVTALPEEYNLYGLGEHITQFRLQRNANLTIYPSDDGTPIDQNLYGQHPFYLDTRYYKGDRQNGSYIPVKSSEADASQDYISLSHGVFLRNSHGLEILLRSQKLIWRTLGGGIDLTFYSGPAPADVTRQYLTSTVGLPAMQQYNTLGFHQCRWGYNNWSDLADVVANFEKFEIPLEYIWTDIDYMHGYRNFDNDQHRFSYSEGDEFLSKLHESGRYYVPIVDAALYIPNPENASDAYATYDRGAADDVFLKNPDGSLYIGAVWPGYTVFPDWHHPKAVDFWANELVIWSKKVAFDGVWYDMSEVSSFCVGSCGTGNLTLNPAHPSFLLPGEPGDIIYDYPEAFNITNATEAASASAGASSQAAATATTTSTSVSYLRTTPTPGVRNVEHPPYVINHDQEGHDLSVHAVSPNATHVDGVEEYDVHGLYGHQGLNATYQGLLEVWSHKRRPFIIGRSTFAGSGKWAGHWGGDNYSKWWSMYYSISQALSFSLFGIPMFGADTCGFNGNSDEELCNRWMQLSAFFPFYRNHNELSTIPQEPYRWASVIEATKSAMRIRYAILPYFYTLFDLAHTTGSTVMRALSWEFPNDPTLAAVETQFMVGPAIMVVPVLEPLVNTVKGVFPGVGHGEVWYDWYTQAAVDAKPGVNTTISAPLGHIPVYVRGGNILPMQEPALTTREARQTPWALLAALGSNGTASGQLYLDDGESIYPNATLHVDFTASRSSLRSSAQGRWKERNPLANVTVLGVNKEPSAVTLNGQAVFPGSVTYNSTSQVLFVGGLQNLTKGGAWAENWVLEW

[3] = target: β-Glucosidase (A. oryzae); experiment: 4-nitrophenyl β-D-glucopyranoside hydrolysis, absorbance […] nm; type: biochemical, Aspergillus oryzae; conditions: read-out: 19; pH 6.0, 37 °C, phosphate buffer, 10% DMSO

β-Glucosidase (P. chrysosp.), sequence (O74203 22-823): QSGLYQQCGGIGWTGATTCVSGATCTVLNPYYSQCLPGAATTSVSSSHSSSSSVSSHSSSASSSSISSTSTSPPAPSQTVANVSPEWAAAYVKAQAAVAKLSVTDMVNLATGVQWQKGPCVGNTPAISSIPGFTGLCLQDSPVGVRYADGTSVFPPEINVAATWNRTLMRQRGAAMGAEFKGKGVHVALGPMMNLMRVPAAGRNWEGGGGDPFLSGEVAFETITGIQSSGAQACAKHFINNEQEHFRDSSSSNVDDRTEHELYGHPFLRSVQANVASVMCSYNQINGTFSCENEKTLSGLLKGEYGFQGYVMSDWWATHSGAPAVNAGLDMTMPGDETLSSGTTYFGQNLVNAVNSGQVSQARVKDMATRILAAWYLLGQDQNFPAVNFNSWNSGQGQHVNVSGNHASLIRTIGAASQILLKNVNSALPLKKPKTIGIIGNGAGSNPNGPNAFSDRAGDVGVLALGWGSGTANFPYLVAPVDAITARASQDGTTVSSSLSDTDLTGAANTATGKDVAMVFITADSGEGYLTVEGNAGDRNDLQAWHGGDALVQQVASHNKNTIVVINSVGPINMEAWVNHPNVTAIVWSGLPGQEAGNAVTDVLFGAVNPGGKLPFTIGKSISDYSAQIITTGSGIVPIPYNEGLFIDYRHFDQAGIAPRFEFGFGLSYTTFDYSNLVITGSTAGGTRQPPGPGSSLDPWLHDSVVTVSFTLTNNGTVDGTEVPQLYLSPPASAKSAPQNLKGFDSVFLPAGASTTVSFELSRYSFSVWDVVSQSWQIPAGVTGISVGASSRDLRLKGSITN

OC[C@@H]1[C@@H](O)[C@H](O)[C@@H](O)CN1Cc1c2ccccc2c(Cl)c2ccccc12 [compound 6, N-(10-Chloro-9-anthracenemethyl)-1-deoxynojirimycin]
Ki ([1]; read-out: 6, competitive): 2.7 µM | Ki [2]: 93 µM | Ki (α-Glucosidase (A. niger)): 1.04 µM

OC[C@@H]1[C@@H](O)[C@H](O)[C@@H](O)CN1CCc1c2ccccc2c(Cl)c2ccccc12 [compound 12, 1-(2-(10-Chloroanthracen-9-yl)ethyl)-1-deoxynojirimycin]
Ki ([1]; read-out: 12): 0.0062 µM

OC[C@@H]1[C@@H](O)[C@H](O)[C@@H](O)CN1CCCc1c2ccccc2c(Cl)c2ccccc12 [compound 15, 1-(3-(10-Chloroanthracen-9-yl)propyl)-1-deoxynojirimycin]
Ki ([1]; read-out: 15): 0.0103 µM

O=C1[C@H](O)[C@@H](O)[C@H](O)[C@@H](CO)N1Cc1c2ccccc2c(Cl)c2ccccc12 [compound 19, N-(10-Chloro-9-anthracenemethyl)-D-glucono-δ-lactam]
Ki ([1]; read-out: 19): 24.3 µM | Ki [3]: 169 µM | Ki (α-Glucosidase (A. niger)): 14.4 µM
